# Assay results: patent US4572895A, “Process for preparing an antibiotic complex by culturing actinomyces strain ATCC 39417” (priority 1985, dated 1986)
# Experiments:
# Escherichia coli NIHJ = experiment: MIC, serial two-fold agar dilution; format: cell-based; conditions: nutrient agar
# [1] = tested on: aerobic gram-positive bacteria and anaerobic bacteria; experiment: antibacterial activity, summary; format: cell-based
# Excerpt: Nutrient agar medium was used for gram-positive and gram-negative bacteria, GAM agar medium for anaerobes and Sabouraud agar medium for fungi.
# [2] = tested on: Staphylococcus aureus Smith; experiment: MIC, serial two-fold agar dilution; format: cell-based; conditions: nutrient agar
# solubility = format: physicochemical; conditions: acidic water
# [3] = tested on: P388, L1210 and B16 tumors; experiment: antitumor activity in mice, summary over P388, L1210 and B16; format: in vivo, BDF1 mice; conditions: experimental mouse tumors
# Clostridium difficile = experiment: MIC, serial two-fold agar dilution; format: cell-based; conditions: Clostridioides difficile; GAM agar, anaerobe
# [4] = tested on: Micrococcus luteus PCI 1001; experiment: MIC, serial two-fold agar dilution; format: cell-based; conditions: PCI1001, nutrient agar
# [5] = tested on: Aspergillus fumigatus IAM 2530; experiment: MIC, serial two-fold agar dilution; format: cell-based; conditions: IAM2530, Sabouraud agar
# [6] = tested on: Staphylococcus aureus 209P; experiment: MIC, serial two-fold agar dilution; format: cell-based; conditions: nutrient agar
# [7] = tested on: Candida albicans IAM 4888; experiment: MIC, serial two-fold agar dilution; format: cell-based; conditions: IAM4888, Sabouraud agar
# [8] = tested on: Cryptococcus neoformans D49; experiment: MIC, serial two-fold agar dilution; format: cell-based; conditions: Sabouraud agar
# [9] = tested on: Klebsiella pneumoniae D11; experiment: MIC, serial two-fold agar dilution; format: cell-based; conditions: nutrient agar
# [10] = tested on: Pseudomonas aeruginosa D15; experiment: MIC, serial two-fold agar dilution; format: cell-based; conditions: nutrient agar
# [11] = tested on: Bacillus subtilis PCI 219; experiment: MIC, serial two-fold agar dilution; format: cell-based; conditions: PCI219, nutrient agar
# [12] = tested on: Trichophyton mentagrophytes D155; experiment: MIC, serial two-fold agar dilution; format: cell-based; conditions: Sabouraud agar
# Micrococcus flavus D12 = experiment: MIC, serial two-fold agar dilution; format: cell-based; conditions: nutrient agar
# [13] = tested on: gram-negative bacteria and fungi; experiment: antibacterial/antifungal activity (MIC), summary; format: cell-based
structure (smiles),measurement,setting,value
Cc1ccc2oc(=O)c3c(O)c4cccc(O[C@@H]5O[C@H](C)[C@H](O)[C@](C)(O)[C@H]5O)c4c4oc(=O)c1c2c34 [BBM-2478B],MIC,Escherichia coli NIHJ,> 100 µg/mL
same,antibacterial activity,[1],potent antibacterial activity
same,MIC,[2],6.3 µg/mL
same,solubility in acidic water,solubility,insoluble
same,antitumor activity,[3],devoid of antitumor activity
same,MIC,Clostridium difficile,25 µg/mL
same,MIC,[4],3.1 µg/mL
same,MIC,[5],> 100 µg/mL
same,MIC,[6],3.1 µg/mL
same,MIC,[7],> 100 µg/mL
same,MIC,[8],> 100 µg/mL
same,MIC,[9],> 100 µg/mL
same,MIC,[10],> 100 µg/mL
same,MIC,[11],0.8 µg/mL
same,MIC,[12],> 100 µg/mL
same,MIC,Micrococcus flavus D12,1.6 µg/mL
same,activity against gram-negative bacteria and fungi,[13],inactive
